Results from US11976058B2, “Aromatic derivatives, preparation methods, and medical uses thereof” (Bioardis LLC, priority 2019, dated 2024).
Read-outs that look alike come from different tables or passages of the source.

Legend:
human FGFR4 = target: T1, human FGFR4 (Homo sapiens, UniProt P22455); experiment: FGFR4 enzymatic assay (HTRF KinEASE-TK); format: biochemical; details: wild-type human FGFR4 cytoplasmic domain (460-802), GST-tag; 60 min preincubation at 25° C.; ATP 200 μM; read-out: Potency (IC50), FGFR4 enzymatic assay
T1 construct: human FGFR4 cytoplasmic domain (460-802); GST (N); purchased Carna Biosciences 08-136
T1 sequence (P22455 460-802): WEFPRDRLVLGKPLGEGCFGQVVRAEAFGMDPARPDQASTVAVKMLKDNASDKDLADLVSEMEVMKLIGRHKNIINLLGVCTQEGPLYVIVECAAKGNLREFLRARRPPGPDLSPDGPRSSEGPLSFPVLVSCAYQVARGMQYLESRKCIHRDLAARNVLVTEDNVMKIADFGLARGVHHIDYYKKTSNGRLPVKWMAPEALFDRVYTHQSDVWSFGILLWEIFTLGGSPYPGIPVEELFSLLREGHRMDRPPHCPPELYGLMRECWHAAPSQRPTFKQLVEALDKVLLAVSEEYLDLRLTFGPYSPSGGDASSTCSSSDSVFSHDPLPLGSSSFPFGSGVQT
Description: The ability of compounds to inhibit human FGFR4 tyrosine kinase activities was determined using a commercially available HTRF® KinEASE™-TK kit (CISBIO, Cat #62TK0PEC) according to the manufacturer's protocol. Wild-type human FGFR4 cytoplasmic domain (460-802) with N-terminal GST-tag was purchased from Carna Biosciences (Carna, Cat #08-136) and used in the kinase enzymatic assay. This assay, run in a 384-well plate format, is a generic method for measuring tyrosine kinase activities using one substrate and a universal detection system. It involves two steps: (1) Enzymatic step: the biotin labeled TK Substrate is incubated with the kinase and then ATP is added to start the enzymatic reaction; during this step, FGFR4 will phosphorylate the TK Substrate-biotin. (2) Detection step: The TK-Antibody labeled with Eu^3+-Cryptate can recognize the phosphorylated TK Substrate-biotin. When the streptavidin-XL665 conjugate binds the biotin, a FRET signal will be detected. Briefly, human FGFR4 (0.25 μg/ml) in the enzymatic buffer solutions (250 mM HEPES, pH7.0, 0.1% NaN3, 0.05% BSA, 0.5 mM Orthovanadate) were mixed with various concentrations of the test compound (dissolved in 100% DMSO). These solutions were incubated for 60 min at 25° C., and subsequently a mixture of substrate peptide and ATP was added with the final peptide and ATP concentrations at 0.3 μM and 200 μM respectively. The final reaction mixture of enzyme-substrate-ATP-compound was incubated for 40 min at 37° C. Meanwhile the detection mixture containing the TK-antibody and Streptavidin-XL665 diluted in the detection buffer (50 mM HEPES, pH7.0, with additives) was prepared, and added to the reaction mixture at final concentrations of 25 nM and 18.5 nM respectively. After incubation for 60 min at 25° C., the FRET signal of the final solution was measured at 665 nm and 612 nm emissions on a TECAN Spark 10M instrument (TECAN). The percent (%) inhibition at each concentration of a compound was calculated relative to the FRET signal in the Max and Min control wells contained within each assay plate. The Max control wells contained enzyme and substrate as 0% inhibition, and the Min control wells only contained substrate without enzyme as 100% inhibition. The concentrations and percent inhibition values for a test compound are plotted and the concentration of the compound required to achieve 50% inhibition (IC50) was determined with a four-parameter logistic dose response equation. Dose-response curves were generated using Prism (GraphPad Software, La Jolla, CA, US) to calculate IC50 values for each compound tested.

Hep3B cells = experiment: Cell-based FGFR4 proliferation assay (CellTiter-Glo); details: incubated with test compound for 3 days, CellTiter-Glo luminescence, read-out: Potency (IC50), Hep3B cell proliferation
Description: Hepatocellular carcinoma cell line Hep3B (ATCC, Cat #HB-8064) were cultured at 37° C., 5% CO2 in ATCC-formulated Eagle's Minimum Essential Medium supplemented with 10% fetal bovine serum; 1% Penicillin-Streptomycin.
(§1) Cell line: Hepatocellular carcinoma cell line Hep3B (ATCC, Cat #HB-8064).
In this assay, Hep3B cells are seeded in 384-well microplates, and after exposure to experimental compounds for […], CellTiter-Glo® Luminescent Cell Viability Assay kit (Promega, Cat #G7572) are used to determine the number of viable cells in the culture based on quantitation of the ATP present, which signals the presence of metabolically active cells. Luminescent signal is proportional to the amount of ATP present. The amount of ATP is directly proportional to the number of cells present in the culture, allowing drug-induced effects on cell proliferation to be measured.
Hep3B cells were plated at a density of 4×10^4/ml cells in a 384-well black/clear microplate with 20 μL per well of MEM Medium (Gibco Cat. #11095-080) supplemented with 10% fetal bovine serum; 1% Penicillin-Streptomycin, and cultured overnight at 37° C., 5% CO2. Various concentrations of the test compound (dissolved in 100% DMSO) were added to the wells of the cell plate. The cells were incubated with the test compound for 3 days at 37° C., 5% CO2. 5 μL of CellTiter-Glo® Reagent was added to each well of the cell plate. The cell plate was incubated for 5 min at 25° C. on a plate shaker (IKA MTS 2/4) at 300 rpm. Luminescence signals were read on a TECAN Spark 10M instrument (TECAN). […] The concentrations and percent inhibition values for a test compound were plotted and the concentration of the compound required to achieve 50% inhibition (IC50) is determined with a four-parameter logistic dose response equation. Dose-response curves were generated using Prism (GraphPad Software, La Jolla, CA, US) to calculate IC50 values for each compound tested.

[1] = tested on: MAPK phosphorylation in Hep3B cells stimulated with FGF19; experiment: FGFR4 pMAPK AlphaLISA SureFire Ultra assay; format: cell-based; details: serum-starved, compound 1 hour, FGF19 100 ng/ml for 4 hours, read-out: Potency (IC50), FGFR4 pMAPK AlphaLISA
From the text: as §1
In normal liver, circulating FGF19 drives liver cell proliferation and regulates bile acid production. However aberrant expression of FGF19 in the liver drives HCC tumorigenesis, upregulates MAPK phosphorylation in FGF19-amplified malignant liver cells. AlphaScreen SureFire technology allows the detection of phosphorylated proteins in cellular lysates in a highly sensitive, quantitative assay. In these assays, sandwich antibody complexes, which are only formed in the presence of analyte, are captured by AlphaScreen Donor and Acceptor beads, bringing them into close proximity. The excitation of the Donor bead provokes the release of singlet oxygen molecules that triggers a cascade of energy transfer in the Acceptor beads, resulting in the emission of light at 520-620 nm.
Hep3B cells were plated at a density of 1×10^4/ml cells in a 96-well plate (Corning #3599), with 100 uL per well of MEM Medium (Gibco Cat #11095-080) supplemented with 10% fetal bovine serum; 1% Penicillin-Streptomycin, and cultured overnight at 37° C., 5% CO2. Starve Hep3B cells in serum-free medium (SFM) supplemented with 0.2% BSA and incubate the cells again overnight at 37° C., 5% CO2. Various concentrations of the test compound (prepared in 2x SFM) were added to the wells of the cell plate and then incubated for 1 hour at 37° C., 5% CO2. 50 μL of FGF19 in SFM was added to each well of the cell plate with a final FGF19 concentration of 100 ng/ml, and cells treated with FGF19 were stimulated for 4 hours at 37° C., 5% CO2. 5 μL of freshly prepared Donor Mix and Acceptor Mix were sequentially added to the cell plate, each followed with 1 hour of incubation at 25° C., 5% CO2. Read the cell plate on an Alpha Technology-compatible plate reader at 570 nm AlphaScreen, using standard AlphaLISA settings. The percent (%) inhibition=((ZPE−Alpha-Signal)/(ZPE−HPE))*100% where the meanings of HPE and ZPE are as provided below.
HPE: Hundred Percent Effect, negative control well without FGF19 nor compound. Final concentration of DMSO is 0.1%.
ZPE: Zero Percent Effect, positive control well without compound. Final concentration of FGF19 is 100 ng/mL, DMSO is 0.1%.
The concentrations and percent inhibition values for a test compound were plotted and the concentration of the compound required to achieve 50% inhibition (IC50) was determined with a four-parameter logistic dose response equation. Dose-response curves were generated using Prism (GraphPad Software, La Jolla, CA, US) to calculate IC50 values for each compound tested.

IC50 (human FGFR4) | IC50 (Hep3B cells; Homo sapiens, Hep3B, 72 h) | IC50 ([1]; Homo sapiens, Hep3B) | IC50 (Hep3B cells) | IC50 [1] | SMILES
10 to 100 nM | > 100 nM | 10 to 100 nM | – | – | C=CC(=O)Nc1cnn(CC)c1-c1n[nH]c2c1CC[C@@H](c1c(F)c(OC)cc(OC)c1F)C2 [Compound S14-P1, (R)—N-(5-(6-(2,6-difluoro-3,5-dimethoxyphenyl)-4,5,6,7-tetrahydro-1H-indazol-3-yl)-1-ethyl-1H-pyrazol-4-yl) acrylamide]
< 10 nM | – | – | < 10 nM | < 10 nM | C=CC(=O)Nc1cn(C)nc1-c1n[nH]c2c1CCCC(c1cc(OC)cc(OC)c1F)C2 (single isomer, unassigned) [Compound S12-P4, N-(3-(7-(2-fluoro-3,5-dimethoxyphenyl)-1,4,5,6,7,8-hexahydrocyclohepta[c]pyrazol-3-yl)-1-methyl-1H-pyrazol-4-yl) acrylamide]
< 10 nM | – | – | 10 to 100 nM | < 10 nM | C=CC(=O)Nc1cnn(C)c1-c1n[nH]c2c1CCC(c1c(F)c(OC)cc(OC)c1F)C2 (single isomer, unassigned) [Compound S1-P2, N-(5-(6-(2,6-difluoro-3,5-dimethoxyphenyl)-4,5,6,7-tetrahydro-1H-indazol-3-yl)-1-methyl-1H-pyrazol-4-yl)acrylamide]
10 to 100 nM | > 100 nM | > 100 nM | – | – | C=CC(=O)Nc1cnn(C)c1-c1n[nH]c2c1CCC1(C2)OCc2c(OC)cc(OC)c(F)c21 (stereo not drawn) [Compound S9, N-(5-(7′-fluoro-4′,6′-dimethoxy-1,4,5,7-tetrahydro-3′H-spiro[indazole-6,1′-isobenzofuran]-3-yl)-1-methyl-1H-pyrazol-4-yl)acrylamide]
< 10 nM | – | – | < 10 nM | < 10 nM | C=CC(=O)Nc1cn[nH]c1-c1n[nH]c2c1CCCC(c1cc(OC)cc(OC)c1F)C2 (single isomer, unassigned) [Compound S11-P4, N-(5-(7-(2-fluoro-3,5-dimethoxyphenyl)-1,4,5,6,7,8-hexahydrocyclohepta[c]pyrazol-3-yl)-1H-pyrazol-4-yl)acrylamide]
< 10 nM | – | – | < 10 nM | – | C=CC(=O)Nc1c[nH]nc1-c1n[nH]c2c1CCC(c1c(F)c(OC)cc(OC)c1F)C2 (single isomer, unassigned) [Compound S15-P2, N-(3-(6-(2,6-difluoro-3,5-dimethoxyphenyl)-4,5,6,7-tetrahydro-1H-indazol-3-yl)-1H-pyrazol-4-yl)acrylamide]
< 10 nM | < 10 nM | – | – | – | C=CC(=O)Nc1cn(CCN(C)C)nc1-c1n[nH]c2c1CCC[C@@H](c1c(F)c(OC)cc(OC)c1F)C2 [Compound S32, (R)—N-(3-(7-(2,6-difluoro-3,5-dimethoxyphenyl)-1,4,5,6,7,8-hexahydrocyclohepta[c]pyrazol-3-yl)-1-(2-(dimethylamino)ethyl)-1H-pyrazol-4-yl)acrylamide]
> 100 nM | > 100 nM | – | – | – | C=CC(=O)Nc1cnn(C)c1-c1n[nH]c2c1COC(c1c(F)c(OC)cc(OC)c1F)C2 (single isomer, unassigned) [Compound S6-P1, N-(5-(6-(2,6-difluoro-3,5-dimethoxyphenyl)-1,4,6,7-tetrahydropyrano[4,3-c]pyrazol-3-yl)-1-methyl-1H-pyrazol-4-yl) acrylamide]
> 100 nM | > 100 nM | – | – | – | C=CC(=O)Nc1ncn(C)c1-c1n[nH]c2c1CCC(c1c(F)c(OC)cc(OC)c1F)C2 (single isomer, unassigned) [Compound S3-P1, N-(5-(6-(2,6-Difluoro-3,5-dimethoxyphenyl)-4,5,6,7-tetrahydro-1H-indazol-3-yl)-1-methyl-1H-imidazol-4-yl) Acrylamide]
< 10 nM | – | – | 10 to 100 nM | – | [2H]C([2H])([2H])n1ncc(NC(=O)C=C)c1-c1n[nH]c2c1CCC(c1c(F)c(OC)cc(OC)c1F)C2 (single isomer, unassigned) [Compound S16-P2, N-(5-(6-(2,6-difluoro-3,5-dimethoxyphenyl)-4,5,6,7-tetrahydro-1H-indazol-3-yl)-1-(methyl-d3)-1H-pyrazol-4-yl)acrylamide]
< 10 nM | 10 to 100 nM | – | – | – | C=CC(=O)Nc1cn(CCN(C)C)nc1-c1n[nH]c2c1CCC[C@H](c1c(F)c(OC)cc(OC)c1F)C2 [Compound S31, (S)—N-(3-(7-(2,6-difluoro-3,5-dimethoxyphenyl)-1,4,5,6,7,8-hexahydrocyclohepta[c]pyrazol-3-yl)-1-(2-(dimethylamino)ethyl)-1H-pyrazol-4-yl)acrylamide]

SMILES | IC50 (human FGFR4) | IC50 (Hep3B cells; Homo sapiens, Hep3B, 72 h) | IC50 ([1]; Homo sapiens, Hep3B) | IC50 (Hep3B cells) | IC50 [1]
C=CC(=O)Nc1cn[nH]c1-c1n[nH]c2c1CCC[C@@H](c1c(F)c(OC)cc(OC)c1F)C2 [Compound S11-P2, (R)—N-(5-(7-(2,6-difluoro-3,5-dimethoxyphenyl)-1,4,5,6,7,8-hexahydrocyclohepta[c]pyrazol-3-yl)-1H-pyrazol-4-yl)acrylamide] | < 10 nM | – | – | < 10 nM | < 10 nM
